Results on 22 compounds are retold here after US11485740B2, “Inhibitors of TRPC6” (Boehringer Ingelheim International GmbH, priority 2018, dated 2022).

Structures are written as SMILES.

One may read the IC50 as the concentration that gives 50% inhibition.

This assay concerns the target T1, human TRPC6 (Homo sapiens, UniProt Q9Y210).
T1 construct: expressed in transfected cells
T1 sequence (Q9Y210 1-931): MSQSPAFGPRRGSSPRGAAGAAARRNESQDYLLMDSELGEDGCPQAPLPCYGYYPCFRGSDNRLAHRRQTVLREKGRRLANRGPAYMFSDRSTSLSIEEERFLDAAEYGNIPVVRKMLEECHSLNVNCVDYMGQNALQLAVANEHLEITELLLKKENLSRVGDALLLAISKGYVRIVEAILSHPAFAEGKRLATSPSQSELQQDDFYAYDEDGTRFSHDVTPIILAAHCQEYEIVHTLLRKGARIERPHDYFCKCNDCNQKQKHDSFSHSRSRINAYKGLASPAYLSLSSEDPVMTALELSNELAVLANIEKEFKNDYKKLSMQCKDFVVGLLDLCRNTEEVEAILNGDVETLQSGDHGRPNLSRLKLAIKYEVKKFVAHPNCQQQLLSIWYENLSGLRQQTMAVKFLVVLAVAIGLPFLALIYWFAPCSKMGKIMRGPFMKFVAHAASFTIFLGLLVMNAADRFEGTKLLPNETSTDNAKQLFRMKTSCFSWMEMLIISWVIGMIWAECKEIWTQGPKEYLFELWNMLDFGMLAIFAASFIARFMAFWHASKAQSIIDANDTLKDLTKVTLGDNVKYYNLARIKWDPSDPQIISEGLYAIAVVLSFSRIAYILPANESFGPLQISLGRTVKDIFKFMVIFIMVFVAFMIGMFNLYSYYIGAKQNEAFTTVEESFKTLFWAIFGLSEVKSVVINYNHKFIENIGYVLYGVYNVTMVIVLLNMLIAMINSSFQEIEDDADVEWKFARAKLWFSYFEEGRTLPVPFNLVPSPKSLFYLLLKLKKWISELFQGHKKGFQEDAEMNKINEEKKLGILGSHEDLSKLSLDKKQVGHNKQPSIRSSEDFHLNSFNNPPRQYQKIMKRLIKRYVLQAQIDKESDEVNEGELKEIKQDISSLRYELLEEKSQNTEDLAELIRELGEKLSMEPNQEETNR
The assay can be described thus: High throughput screening assay: Fluo4/AM calcium fluorescence in HEK293/TREx cells expressing human TRPC6, agonist GSK1702934A (single concentration 10 μM and IC50 curves). The format is cell-based. The following applies: antagonist effect against human TRPC6, 7 concentrations 20 μM to 0.027 μM, triplicate. An excerpt:
High Throughput Screening Assay
This screening assay measures human TRPC6 (transient receptor potential cation channel, subfamily C, member 6) ion channel activation via addition either of the commercially available DAG ligand analogue OAG (1-oleoyl-2-acetyl-sn-glycerol) or of the TRPC6 agonist 1-[1-(4,5,6,7,8-pentahydrocyclohepta[2,1-d]thiophen-2-ylcarbonyl)-4-piperidyl]-3-hydrobenzimidazol-2-one (GSK1702934A). The assay utilizes a fluorescent calcium sensor 4-(6-Acetoxymethoxy-2,7-difluoro-3-oxo-9-xanthenyl)-4′-methyl-2,2′-(ethylenedioxy)dianiline-N,N,N′,N′-tetraacetic acid tetrakis(acetoxymethyl) ester (Fluo4/AM) dye from Molecular Devices. Changes (increases) in intracellular calcium concentration as measured by the fluorescent signal increase provide a measurement of channel activity.
The commercially available HEK293/TREx line (Invitrogen) was stably transfected with a human TRPC6 construct and screened by conventional calcium imaging to find clones with human TRPC6 expression following stimulation with 1 μg/ml tetracycline. These cells were maintained in the growth medium recommended by the manufacturer supplemented with 100 μg/ml hygromycin to promote retention of the human TRPC6 construct. After growing to near confluency, cells were plated at a density of ^˜35,000 cells/well in 384 well CellBind plates (Corning) in the presence of 1 μg/ml tetracycline, and allowed to grow for 20-30 hrs. A nearly confluent monolayer resulted. Growth media was removed from the wells and cells were then loaded with […] Fluo4/AM diluted in Ringer's Solution (6.5 g NaCl, 0.42 g KCl, 0.25 g CaCl2) and 0.2 g of sodium bicarbonate; pH 7.4) supplemented with 1% Pluronic F-127 to a final concentration of 0.5 μM and incubated for 60 min, at room temperature. Dye solution was then removed from the cells by inverting plates with a sharp flick, and replaced with 25 μl Ringer's. Following ^˜0.5 hour for recovery from loading, cells were assayed using the Hamamatsu FDSS 6000 system, which permitted illumination at 485 nm. Frames were acquired at a rate of 0.2 Hz. During the assay, the plates were continuously vortexed, with pipette mixing of wells following addition of each reagent. For the screening assay, 26 μl of a diluted compound stock (at 50 μM) was added to each well for 2 minutes following the collection of a short (4 frame) baseline. 13 μl of agonist solution consisting of 125 nM GSK1702934A diluted in high-Ca2+Ringer solution (containing 90 mM Ca2+) was then added to each well, achieving a final concentration of 20 mM Ca2+ and 10 μM test compound. Data was collected for ^˜3 minutes following addition of high Ca2+Ringer. The fluorescent intensity observed at a particular timepoint for each well was divided by the initial fluorescent intensity for that well and the overall response was determined by averaging the resulting fluorescent ratio of the last 4 frames acquired during the experiment excepting the final frame. Negative and Positive controls were included on each plate. Negative controls wells consisted of HEK293/TREx TRPC6 cells exposed to assay buffer and agonist solution, but no test compound. Positive control consisted of wells consisted of HEK293/TREx TRPC6 cells exposed to 25 μM 3-[(2-chlorophenoxy)methyl]phenyl piperidyl ketone (Chembridge) diluted in Ringer's solution and agonist solution. These controls defined zero percent and 100 percent block respectively, and intensity of each well was normalized to these values.
Compounds were tested in triplicate at all concentrations. Standard software was used to fit IC50 curves.
In the case of `COc1cc(C(=O)N2CCC(c3ccc(N)nc3)CC2)ncc1-c1ccc(C(F)(F)F)nc1` [Compound 97, (6-Amino-3′,4′,5′,6′-tetrahydro-2′H-[3,4′]bipyridinyl-1′-yl)-(4-methoxy-6′-trifluoromethyl-[3,3′]bipyridinyl-6-yl)-methanone], the 50% inhibitory concentration (IC50) turned out to be 69 nM.

Consider `COc1cc(C(=O)N2CCC(c3ccc(N)nn3)CC2)ccc1-c1ccc(OCC2CC2)nc1` [Compound 82, [4-(6-Amino-pyridazin-3-yl)-piperidin-1-yl]-[4-(6-cyclopropylmethoxy-pyridin-3-yl)-3-methoxy-phenyl]-methanone], for which the IC50 turned out to be 340 nM.

Take `COc1cc(C(=O)N2CCN(c3cnc(N)cc3OC)CC2CC(F)F)ncc1-c1ccc(C(F)(F)F)cc1` (single isomer, unassigned) [Compound 109]: the 50% inhibitory concentration (IC50) came to 330 nM.

With `COc1cc(C(=O)N2CCC(c3ccc(N)nn3)CC2)ncc1-c1ccc(F)cc1` [Compound 36, 6-{1-[5-(4-Fluorophenyl)-4-methoxypyridine-2-carbonyl]piperidin-4-yl}pyridazin-3-amine], the IC50 was 27 nM.

Consider `COc1cc(C(=O)N2CCC(c3ccc(N)nn3)CC2)ncc1-c1ccc(OC2CCCC2)cc1` [Compound 23, [4-(6-Amino-pyridazin-3-yl)-piperidin-1-yl]-[5-(4-cyclopentyloxy-phenyl)-4-methoxy-pyridin-2-yl]-methanone], for which the IC50 was 69 nM.

`COc1cc(C(=O)N2CCN(c3cnc(N)cc3OC)CC2CC(F)F)ncc1-c1ccc(C(F)(F)F)cc1` (stereo not shown) [Compound 108, [4-(6-Amino-4-methoxy-pyridin-3-yl)-2-(2,2-difluoro-ethyl)-piperazin-1-yl]-[4-methoxy-5-(4-trifluoromethyl-phenyl)-pyridin-2-yl]-methanone]: the IC50 amounted to 700 nM.

`COc1cc(C(=O)N2CCC(c3nnc(N)cc3C)CC2)ncc1-c1ccc(C(F)(F)F)cc1` [Compound 88, [4-(6-Amino-4-methyl-pyridazin-3-yl)-piperidin-1-yl]-[4-methoxy-5-(4-trifluoromethyl-phenyl)-pyridin-2-yl]-methanone]: the IC50 came to 280 nM.

As for `COc1cc(C(=O)N2CCC(c3ccc(N)nn3)CC2)ncc1-c1ccc(C)c(C#N)c1` [Compound 51, 5-{6-[4-(6-Amino-pyridazin-3-yl)-piperidine-1-carbonyl]-4-methoxy-pyridin-3-yl}-2-methyl-benzonitrile], the IC50 worked out at 900 nM.

`Nc1ccc(C2CCN(C(=O)c3ccc(-c4ccccc4)cc3)CC2)nn1` [Compound 1, [4-(6-Amino-pyridazin-3-yl)-piperidin-1-yl]-biphenyl-4-yl-methanone]: the IC50 was 3800 nM.

Consider `COc1cc(C(=O)N2CCC(c3ccc(N)nn3)CC2)ccc1-c1ccc(OC(F)(F)F)cc1` [Compound 56, [4-(6-Amino-pyridazin-3-yl)-piperidin-1-yl]-(2-methoxy-4′-trifluoromethoxy-biphenyl-4-yl)-methanone], for which the IC50 was determined as 910 nM.

In the case of `Nc1ccc(C2CCN(C(=O)c3ccc(-c4cccc(Cl)c4)cc3)CC2)nn1` [Compound 6, [4-(6-Amino-pyridazin-3-yl)-piperidin-1-yl]-(3′-chloro-biphenyl-4-yl)-methanone], the IC50 came out at 4400 nM.

As for `Cc1ccc(-c2ccc(C(=O)N3CCC(c4ccc(N)nn4)CC3)cc2)cc1` [Compound 3, [4-(6-Amino-pyridazin-3-yl)-piperidin-1-yl]-(4′-methyl-biphenyl-4-yl)-methanone], the concentration for half-maximal inhibition (IC50) came out at 1700 nM.

As for `COc1cc(C(=O)N2C[C@@H]3C[C@H]2CN3c2ccc(N)nn2)ccc1-c1ccc(C(F)(F)F)cc1` [Compound 115, [(1S,4S)-5-(6-Amino-pyridazin-3-yl)-2,5-diaza-bicyclo[2.2.1]hept-2-yl]-(2-methoxy-4′-trifluoromethyl-biphenyl-4-yl)-methanone], the 50% inhibitory concentration (IC50) worked out at 250 nM.

As to `COc1cc(C(=O)N2CCC(c3ccc(N)nn3)CC2)ncc1-c1ccccc1` [Compound 32, [4-(6-Amino-pyridazin-3-yl)-piperidin-1-yl]-(4-methoxy-5-phenyl-pyridin-2-yl)-methanone], the half-maximal inhibitory concentration (IC50) is 110 nM.

As to `COc1cc(C(=O)N2CCC(c3ccc(N)nn3)CC2)ncc1-c1cccc(OCC2CC2)c1` [Compound 21, [4-(6-Amino-pyridazin-3-yl)-piperidin-1-yl]-[5-(3-cyclopropylmethoxy-phenyl)-4-methoxy-pyridin-2-yl]-methanone], the IC50 was 160 nM.

`COC[C@H]1CN(c2cnc(N)cc2OC)CCN1C(=O)c1cc(OC)c(-c2ccc(F)cc2)cn1` [Compound 98, [(R)-4-(6-Amino-4-methoxy-pyridin-3-yl)-2-methoxymethyl-piperazin-1-yl]-[5-(4-fluoro-phenyl)-4-methoxy-pyridin-2-yl]-methanone]: the half-inhibitory concentration (IC50) worked out at 200 nM.

As to `COc1cc(C(=O)N2CCC(c3ccc(N)nn3)CC2)ccc1-c1ccc(OCC(F)(F)F)cc1` [Compound 58, [4-(6-Amino-pyridazin-3-yl)-piperidin-l-yl]-[2-methoxy-4′-(2,2,2-trifluoro-ethoxy)-biphenyl-4-yl]-methanone], the IC50 was 81 nM.

As for `CC(C)Cc1ccc(-c2ccc(C(=O)N3CCC(c4ccc(N)nn4)CC3)cc2)cc1` [Compound 83, [4-(6-Amino-pyridazin-3-yl)-piperidin-1-yl]-(4′-isobutyl-biphenyl-4-yl)-methanone], the IC50 amounted to 8700 nM.

Turning to `CC[C@@H](C)Oc1ccc(-c2ccc(C(=O)N3CCC(c4ccc(N)nn4)CC3)cc2OC)cn1` [Compound 74, [4-(6-Amino-pyridazin-3-yl)-piperidin-1-yl]-{4-[6-((R)-sec-butoxy)-pyridin-3-yl]-3-methoxy-phenyl}-methanone], the IC50 came out at 140 nM.

In the case of `COc1cc(C(=O)N2CCN(c3cnc(N)cc3OC)C[C@@H]2CO)ncc1-c1ccccc1` [Compound 96, [(R)-4-(6-Amino-4-methoxy-pyridin-3-yl)-2-hydroxymethyl-piperazin-1-yl]-(4-methoxy-5-phenyl-pyridin-2-yl)-methanone], the concentration for half-maximal inhibition (IC50) is 320 nM.

For `COC[C@H]1CN(c2cnc(N)cc2OC)CCN1C(=O)c1cc(OC)c(-c2ccc(C(F)(F)F)cc2)cn1` [Compound 99, [(R)-4-(6-Amino-4-methoxy-pyridin-3-yl)-2-methoxymethyl-piperazin-1-yl]-[4-methoxy-5-(4-trifluoromethyl-phenyl)-pyridin-2-yl]-methanone], the concentration for half-maximal inhibition (IC50) was found to be 300 nM.

Turning to `COc1cc(C(=O)N2CCC(c3ccc(N)nn3)CC2)ccc1-c1ccccc1` [Compound 60, [4-(6-Amino-pyridazin-3-yl)-piperidin-1-yl]-(2-methoxy-biphenyl-4-yl)-methanone], the 50% inhibitory concentration (IC50) is 930 nM.
